According to PMC9585581, “Developing Photoaffinity Probes for Dopamine Receptor D2 to Determine Targets of Parkinson’s Disease Drugs” (ACS Chemical Neuroscience, 2022):

Tests used:
human DRD2, long form = target: T1, human DRD2, long form (Homo sapiens, UniProt P14416); experiment: Intracellular Ca2+ mobilization assay (HEK293T stably expressing DRD2, chimeric G-protein Gqi5, calcium dye, confocal microscopy); type: cell-based; conditions: for EC50: Ca assay, HEK293T stably expressing human DRD2 and chimeric G-protein, Hill slope of 1.0; for activity in calcium flux assay (in words): calcium flux bioactivity
T1 construct: expressed in transfected cells; Gqi5 chimera transiently transfected
T1 sequence (P14416 whole entry): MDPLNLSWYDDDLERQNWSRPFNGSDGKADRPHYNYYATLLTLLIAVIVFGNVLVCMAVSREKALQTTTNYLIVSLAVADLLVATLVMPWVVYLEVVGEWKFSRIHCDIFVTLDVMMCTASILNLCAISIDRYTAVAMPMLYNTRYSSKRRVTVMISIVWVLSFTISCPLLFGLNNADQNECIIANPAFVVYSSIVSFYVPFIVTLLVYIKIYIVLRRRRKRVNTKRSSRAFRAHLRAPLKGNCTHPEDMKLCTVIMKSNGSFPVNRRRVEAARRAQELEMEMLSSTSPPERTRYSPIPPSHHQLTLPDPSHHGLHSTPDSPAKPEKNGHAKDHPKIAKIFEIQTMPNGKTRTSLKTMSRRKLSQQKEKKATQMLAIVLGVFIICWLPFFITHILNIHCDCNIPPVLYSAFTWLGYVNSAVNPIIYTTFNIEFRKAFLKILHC
Method: Intracellular calcium measurement was used to determine G-protein-mediated signaling by DRD2. Because DRD2 is linked to the G-protein subtype Gi, agonist binding inhibits adenyl cyclase activity.[42] To mitigate this effect, we created an HEK293T cell line stably expressing human DRD2, long form, and a chimeric G-protein, Gqi, which alters the DRD2 receptor’s G-protein coupling so that signaling can occur through Gq, resulting in an intracellular calcium flux.[43] The assay is performed by first loading the cell line with a calcium-sensing dye. Binding of the ligand to the receptor results in an influx of calcium to the cytoplasm, which can be characterized in real time by monitoring the increase in dye fluorescence with confocal microscopy.
Figure 2 Intracellular calcium flux assay. HEK293T cell line stably expressing constructs for human DRD2 and a chimeric G-protein is loaded with calcium-sensing dye, […]. After dosing the probe, confocal microscopy is used to determine the calcium flux in the cell by change in dye fluorescence.
A stable HEK293T-derived cell line-expressing DRD2-Strep Tag II fusion was maintained in DMEM supplemented with 10% FBS, 100 U/mL penicillin, and 100 μg/mL streptomycin in a humidified atmosphere at 37 °C in 5% CO2. On day 1, cells were plated at a density of 4 × 10^4 cells/cm^2 in a poly-D-lysine-coated 18-well chambered coverslip (Ibidi). The following day (day 2), cells were transfected with a 10× solution of 3:1 mixture of Gqi5/Optifect Transfection Reagent (Thermo) in unsupplemented DMEM. On day 3, the transfection media was removed and calcium-sensitive dye loading was performed following the protocol of the Fluo-4 Direct Calcium Assay Kit (Invitrogen). 5× drug stimulation solutions were prepared in filter-sterilized HBSS. Once Fluo-4 loading was complete, a time series acquisition at a rate of 1 fps was recorded using a Zeiss LSM 980 with Airyscan 2. Basal fluorescence was recorded for 20 s, followed by the addition of drug solution to a 1× final concentration and acquisition for an additional 40 s. Results in the form of fold fluorescence increase over basal were averaged over 50 cells in ImageJ (NIH), and GraphPad Prism was used for the analysis of data.

DRD2 = DRD2 (Homo sapiens, UniProt P14416); experiment: Western blot analysis of DRD2-probe binding with competition by parent pharmacophore; set-up: expressed in transfected cells; conditions: probe 100 nm; for competition with parent pharmacophore (Western blot): competitor (ropinirole or pramipexole) 50 μM; for photo-cross-linking / colocalization with DRD2 band (Western blot): membrane fraction enriched via Strep Tag II
Chain of DRD2 (P14416 whole entry): as above
Description: To observe the photo-cross-linking of DRD2 at the protein level, we analyzed the colocalization of DRD2 by clicking a fluorophore on the probe and performing Western blots. We further observed the competition with the parent pharmacophore of each probe and the ability of a negative control benzophenone (16) to cross-link to DRD2. Our DRD2-expressing cells or unmodified 293T cells (control group) were suspended in media, treated with the probe at a 100 nm concentration, and photo-cross-linked. The cells were then lysed, and the membrane fraction was separated and enriched for DRD2 by pulldown of the Strep Tag II fusion using magnetic beads. After “clicking” a fluorescent tag to the probe, the membrane fraction was run on an SDS-PAGE gel, transferred to a nitrocellulose membrane, and treated with antibodies against DRD2 and Strep Tag II. […] We also observed many nonspecific binding bands for the probe, which is consistent with our other studies, as well as the observations of the field when it relates to photo-cross-linking groups. […] With this confirmation, we proceeded to proteomic analysis of probe interactions.
Figure 6 Photo-cross-linking of probes 5 and 7 to DRD2 visualized with Western blot. Lanes 1–5 correspond to samples with probe 5 at 100 nm, lanes 6–10 correspond to samples treated with probe 7 at 100 nm, and lanes 11–14 correspond to samples treated with negative control probe 16. Lanes: 1, 6, and 11 are the anti-DRD2 antibody channel, lanes 2, 3, 7, 8, and 12 are fluorescence of the Alexa Fluor 555 clicked to the probes 5, 7, or 16, lanes 4, 9, and 13 are the anti-Strep Tag antibody channel, and lanes 5, 10, and 14 are the overlaid channels for the respective probes.
A stable HEK293T-derived cell line-expressing DRD2-Strep Tag II fusion was maintained in DMEM supplemented with 10% FBS, 100 U/mL penicillin, and 100 μg/mL streptomycin in a humidified atmosphere at 37 °C in 5% CO2. Cells were plated at a density of 4 × 10^4 cells/cm^2 in T300 tissue culture flasks (CellTreat) and allowed to grow to an 80% confluency. At confluency, media was removed and cells were washed once with cold HBSS, followed by incubation for 15 min in cold HBSS with 0.53 mM EDTA. Following incubation, cells were scraped off of the bottom of the flask and the cell suspension was transferred to a 15 mL conical tube and then pelleted at 500g for 5 min. The supernatant was removed, and the cell pellet was resuspended in HBSS followed by centrifugation at 500g for 5 min. […] The supernatant of the cell pellet was removed, and the cells were resuspended in probe solution and incubated at room temperature for 2 min followed by centrifugation at 500g for 5 min. The cell pellet was resuspended in either HBSS or 50 μM competitor solution in HBSS and irradiated with a 365 nm UV lamp (8 W, 2 cm distance) for 30 min at room temperature. The cells were then pelleted at 500g for 5 min, and the supernatant was removed. Membrane fractionation was performed following the MEM-PER Membrane Protein Extraction Kit (Thermo). The solubilized membrane fraction was incubated with hydrophilic streptavidin magnetic beads (NEB) for 1 h at room temperature. The flow-through was removed, and the beads were washed twice with PBS. […]

Row | EC50 (human DRD2, long form) | difference in potency of probe vs parent compound (human DRD2, long form; calcium assay, 5 vs ropinirole) | activity in calcium flux assay (in words) (human DRD2, long form) | competition with parent pharmacophore (Western blot) (DRD2) | photo-cross-linking / colocalization with DRD2 band (Western blot) (DRD2) | SMILES
1 | 1.67 µM | ~10 × | low micromolar potency | greatly diminish the binding | binding to the DRD2 receptor | C#CCOc1ccc(C(=O)c2ccc(CNCCc3cccc4c3CC(=O)N4)cc2)cc1 [Compound 5, 4-(2-((4-(4-(Prop-2-yn-1-yloxy)benzoyl)benzyl)amino)ethyl)indolin-2-one]
2 | 2.19 µM | – | low micromolar potency | greatly diminish the binding | binding to the DRD2 receptor | C#CCOc1ccc(C(=O)c2ccc(CN[C@H]3CCc4nc(N)sc4C3)cc2)cc1 [Compound 7, (S)-(4-(((2-Amino-4,5,6,7-tetrahydrobenzo[d]thiazol-6-yl)amino)methyl)phenyl)(4-(prop-2-yn-1-yloxy)phenyl)methanone]
